Data taken from patent publication US12458610B2, “Pharmaceutical composition for treating or preventing diabetic cataract” (KOREA UNIVERSITY RESEARCH AND BUSINESS FOUNDATION, priority 2019, dated 2025).

Key:
Type in all cases: in vivo, rat
[1] = Body weight change in diabetes model rats; settings: OLETF rats; for body weight over time: raising period
Description: (§1) Otsuka Long-Evans Tokushima Fatty (OLETF) rats were used as a diabetes animal model of rats. The OLETF rats are widely used as a type 2 diabetes animal model because fat accumulation and hyperglycemia are induced in the body of the experimental animals and the pathological condition is similar to that of type 2 diabetes in human. Long-Evans Tokushima Otsuka (LETO) rats were used as a normal control group. The OLETF rats were divided into three groups depending on midodrine intake: OLETF, OLETF-M0.3 and OLETF-M1.0. The OLETF group was raised without intake of midodrine, the OLETF-M0.3 group was made to ingest 0.3 mg of midodrine every day per body weight (midodrine 0.3 mg/kg/day), and the OLETF-M1.0 group was made to ingest 1.0 mg of midodrine every day per body weight (midodrine 1.0 mg/kg/day). Midodrine was dissolved in drinking water so that the rats could ingest the corresponding daily dosage.
(§2) The experimental animals were divided into four groups: LETO, OLETF, OLETF-M0.3 and OLETF-M1.0, and all the experimental animals were raised for 12 weeks. During the 12 weeks, the OLETF-M0.3 group and the OLETF-M1.0 group were made to ingest midodrine every day.

[2] = system: Otsuka Long-Evans Tokushima Fatty (OLETF) rats; assay: Onset of cataract in lens by retroillumination imaging (LOCS III C1/P1 or higher); settings: untreated OLETF 8 out of 12 eyes
Description: as §1, §2

[3] = Fasting blood sugar level in diabetes model rats, weekly by blood glucose meter; settings: midodrine 1.0 mg/kg/day in drinking water (OLETF-M1.0), from week 9
Description: as §1, §2

[4] = system: Otsuka Long-Evans Tokushima Fatty (OLETF) rats; assay: Lens transparency: clarity of graph paper pattern seen through the lens (ImageJ); settings: midodrine 0.3 mg/kg/day for 12 weeks (OLETF-M0.3), untreated OLETF significantly decreased
Description: as §1, §2

[5] = system: hexokinase; assay: Hexokinase level in lens by ELISA; settings: OLETF rats, untreated OLETF significantly lower than LETO
Description: as §1, §2
(§3) The levels of aldose reductase, hexokinase and ATP in the lens sample were measured with a spectrophotometer (Spectramax Plus 384; Molecular Devices, Sunnyvale, CA, USA) by ELISA assay.

[6] = system: TNFα; assay: TNFα level in blood (plasma); settings: OLETF rats, midodrine 0.3 mg/kg/day (OLETF-M0.3); OLETF 10.667±2.732, LETO 7.23±0.722
Description: as §1, §2

[7] = system: ATP; assay: ATP level in lens by ELISA; settings: OLETF rats, OLETF 2.307±0.225, LETO 2.622±0.146
Description: as §1, §2, §3

[8] = system: aldose reductase; assay: Aldose reductase level in lens by ELISA; settings: OLETF rats, OLETF 38.4±3.1, LETO 37.2±2.8
Description: as §1, §2, §3

[9] = system: AMPK (AMP-activated protein kinase); assay: AMPK level in lens; settings: OLETF rats, midodrine 0.3 mg/kg/day (OLETF-M0.3); OLETF 0.0509±0.0293 U/mL
[10] = midodrine 0.3 mg/kg/day (OLETF-M0.3)
[11] = midodrine 1.0 mg/kg/day (OLETF-M1.0)

Structure (SMILES): COc1ccc(OC)c(C(O)CNC(=O)CN)c1 (racemic) [midodrine, (RS)—N-[2-(2,5-dimethoxyphenyl)-2-hydroxyethyl]glycinamide]
- body weight compared with the LETO group ([1]; midodrine 0.3 mg/kg/day (OLETF-M0.3), from week 9): no significant difference
- body weight over time ([1]; midodrine 0.3 mg/kg/day in drinking water (OLETF-M0.3)): decreased slightly with time
- body weight over time ([1]; midodrine 1.0 mg/kg/day in drinking water (OLETF-M1.0)): decreased slightly with time
- eyes with cataract observed ([2]; midodrine 0.3 mg/kg/day for 12 weeks (OLETF-M0.3)): 1 out of 10
- eyes with cataract observed ([2]; midodrine 1.0 mg/kg/day for 12 weeks (OLETF-M1.0)): 2 out of 8
- fasting blood sugar level as compared to the OLETF group [3]: decreased slightly
- lens transparency compared with the LETO group [4]: no significant difference
- hexokinase level in lens as compared to the LETO group [5, 10]: no significant difference
- hexokinase level in lens as compared to the LETO group [5, 11]: no significant difference
- level of the inflammatory cytokine TNFα in blood (plasma) [6]: 5.383 ± 0.984 pg/mL
- level of ATP in lens [7, 10]: 3.065 ± 0.202 ng/mL
- level of ATP in lens [7, 11]: 3.025 ± 0.299 ng/mL
- level of aldose reductase in lens [8, 10]: 33.6±2.6 U/L
- level of aldose reductase in lens [8, 11]: 34.1±2.8 U/L
- AMPK level in lens as compared to the OLETF group [9]: significantly increased
